# Reference: ChEMBL document CHEMBL1126941, “Synthesis and evaluation of unsymmetrically substituted polyamine analogues as modulators of human spermidine/spermine-N1-acetyltransferase (SSAT) and as potential antitumor agents” (1993)
# Tests used:
# Type in all cases: functional, Homo sapiens
# LCLC = experiment: Tested for induction of SSAT activity in H157 LCLC cells following treatment with 10 uM of the BESpm
# SCLC [1] = experiment: Tested for induction of SSAT activity in H82 SCLC cells following treatment with 10 uM BESpm
# SCLC [2] = experiment: Tested for induction of SSAT activity in H82 SCLC cells following treatment with 10 uM of the BESpm
Structure (SMILES),SSAT (LCLC),SSAT (SCLC [1]),SSAT (SCLC [2])
Br.Br.Br.Br.CCNCCCNCCCCNCCCNCC,38300 pmol/min/mg,22.7 pmol/min/mg,–
Br.Br.Br.Br.C#CCNCCCNCCCNCCCNCC,19100 pmol/min/mg,–,19.8 pmol/min/mg
Br.Br.Br.Br.CCNCCCNCCCNCCCNCC1CC1,42800 pmol/min/mg,–,47.1 pmol/min/mg
